Entries after “also recorded” stand apart in the source; their conditions may differ.
Target: GroEL/GroES (Escherichia coli, UniProt P0A6F5)
Experiment: Thermofluor (DSF) unfolding of equimolar GroEL/GroES with adenine nucleotides
Assay type: binding
Details: in the presence of the nucleotide
Source text: In a next proof of principle for the validity of the method according to the present invention, it has been determined whether thermal unfolding was suitable to find small molecules, which stabilize molecular machines similarly as has been documented for single-domain proteins (Ericsson et al. 2006, Analytical Biochemistry, 357:289-298). For this the GroEL/GroES (homo-tetradecameric 800 kDa and homo-heptameric 70 kDa, respectively) chaperonin system has been analysed. Two important properties of the chaperonin system have been well documented in the literature (Sigler et al., 1998, Annual Reviews in Biochemistry, 67:581-608; Tang et al., 2006, Cell, 125:908-914). First, GroEL forms a double heptameric ring structure, which exposes hydrophobic residues on one face, where non-native substrate protein can bind. Second, the binding of adenine-nucleotides to GroEL induces a conformational change, which causes the previously exposed hydrophobic residues to be buried and is essential for GroES binding to one face of the GroEL double ring. Therefore, measurements according to the present invention of an equimolar GroEL/GroES should yield a high initial fluorescence owing to the solvent-exposed hydrophobic residues, which gradually decreases upon temperature ramping. […]

Chain of GroEL/GroES (P0A6F9 whole entry): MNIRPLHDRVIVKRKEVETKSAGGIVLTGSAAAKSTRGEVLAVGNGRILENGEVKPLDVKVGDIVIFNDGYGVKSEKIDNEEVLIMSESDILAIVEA
Chain of GroEL/GroES (P0A6F5 2-548): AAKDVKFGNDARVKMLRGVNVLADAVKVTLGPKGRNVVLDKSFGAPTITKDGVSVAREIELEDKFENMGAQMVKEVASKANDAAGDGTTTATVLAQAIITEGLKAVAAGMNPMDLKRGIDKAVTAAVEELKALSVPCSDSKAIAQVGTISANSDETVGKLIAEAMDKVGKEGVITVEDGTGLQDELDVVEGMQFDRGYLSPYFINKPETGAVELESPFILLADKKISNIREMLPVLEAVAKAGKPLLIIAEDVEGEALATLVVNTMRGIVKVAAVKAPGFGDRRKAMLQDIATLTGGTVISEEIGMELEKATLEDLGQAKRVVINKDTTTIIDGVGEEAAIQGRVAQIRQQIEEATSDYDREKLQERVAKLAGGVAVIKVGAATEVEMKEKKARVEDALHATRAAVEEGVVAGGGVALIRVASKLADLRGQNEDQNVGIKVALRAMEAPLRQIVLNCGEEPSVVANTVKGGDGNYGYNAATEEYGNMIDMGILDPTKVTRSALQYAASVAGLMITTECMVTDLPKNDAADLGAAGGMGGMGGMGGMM

SMILES	unfolding transition of GroEL/GroES (complex formation)
Nc1ncnc2c1ncn2[C@@H]1O[C@H](COP(=O)(O)OP(=O)(O)OP(=O)(O)O)[C@@H](O)[C@H]1O [ATP]	complexes are formed; also recorded: single—apparent two-state—unfolding transition
Nc1ncnc2c1ncn2[C@H]1C[C@H](O)[C@@H](COP(=O)(O)OP(=O)(O)OP(=O)(O)O)O1 [dATP]	complexes are formed; also recorded: single—apparent two-state—unfolding transition
